# Test results: patent publication US7211424B1, “Mammalian Subtilisin/kexin isozyme SKI-1: a proprotein convertase with a unique cleavage specificity” (Institut de Recherches Cliniques de Montreal, priority 1999, dated 2007)
# Like-named read-outs stand apart in the source and are kept apart here.
# T1: SKI-1 (Homo sapiens, UniProt Q14703)
# T1 sequence (Q14703 187-1052): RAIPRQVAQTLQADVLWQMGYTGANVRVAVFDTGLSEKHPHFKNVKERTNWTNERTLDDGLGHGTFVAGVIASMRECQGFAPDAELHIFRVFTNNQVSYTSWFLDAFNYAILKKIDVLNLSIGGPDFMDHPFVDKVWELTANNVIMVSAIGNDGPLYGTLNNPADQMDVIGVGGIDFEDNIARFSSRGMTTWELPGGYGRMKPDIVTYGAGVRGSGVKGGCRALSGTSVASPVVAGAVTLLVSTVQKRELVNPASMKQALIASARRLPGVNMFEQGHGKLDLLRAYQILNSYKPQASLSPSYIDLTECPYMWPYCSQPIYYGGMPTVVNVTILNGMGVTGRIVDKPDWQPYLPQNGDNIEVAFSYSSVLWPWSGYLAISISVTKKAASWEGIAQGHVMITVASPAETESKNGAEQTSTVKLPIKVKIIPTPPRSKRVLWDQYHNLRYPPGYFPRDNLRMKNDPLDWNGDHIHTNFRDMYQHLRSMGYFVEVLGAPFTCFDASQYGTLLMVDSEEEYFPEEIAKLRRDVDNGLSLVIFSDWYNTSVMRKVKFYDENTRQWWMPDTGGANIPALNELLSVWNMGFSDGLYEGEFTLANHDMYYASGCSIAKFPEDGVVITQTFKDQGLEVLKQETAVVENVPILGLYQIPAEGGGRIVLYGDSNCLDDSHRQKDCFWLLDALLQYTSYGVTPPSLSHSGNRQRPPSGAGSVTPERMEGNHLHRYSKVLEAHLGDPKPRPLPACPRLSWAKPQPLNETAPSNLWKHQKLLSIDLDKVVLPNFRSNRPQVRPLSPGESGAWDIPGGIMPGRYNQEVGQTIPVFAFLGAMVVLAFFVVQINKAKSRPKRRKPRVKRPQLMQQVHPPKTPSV
# T2: SKI-1 (Homo sapiens, UniProt Q14703)
# T2 sequence (Q14703 187-998 limits assumed): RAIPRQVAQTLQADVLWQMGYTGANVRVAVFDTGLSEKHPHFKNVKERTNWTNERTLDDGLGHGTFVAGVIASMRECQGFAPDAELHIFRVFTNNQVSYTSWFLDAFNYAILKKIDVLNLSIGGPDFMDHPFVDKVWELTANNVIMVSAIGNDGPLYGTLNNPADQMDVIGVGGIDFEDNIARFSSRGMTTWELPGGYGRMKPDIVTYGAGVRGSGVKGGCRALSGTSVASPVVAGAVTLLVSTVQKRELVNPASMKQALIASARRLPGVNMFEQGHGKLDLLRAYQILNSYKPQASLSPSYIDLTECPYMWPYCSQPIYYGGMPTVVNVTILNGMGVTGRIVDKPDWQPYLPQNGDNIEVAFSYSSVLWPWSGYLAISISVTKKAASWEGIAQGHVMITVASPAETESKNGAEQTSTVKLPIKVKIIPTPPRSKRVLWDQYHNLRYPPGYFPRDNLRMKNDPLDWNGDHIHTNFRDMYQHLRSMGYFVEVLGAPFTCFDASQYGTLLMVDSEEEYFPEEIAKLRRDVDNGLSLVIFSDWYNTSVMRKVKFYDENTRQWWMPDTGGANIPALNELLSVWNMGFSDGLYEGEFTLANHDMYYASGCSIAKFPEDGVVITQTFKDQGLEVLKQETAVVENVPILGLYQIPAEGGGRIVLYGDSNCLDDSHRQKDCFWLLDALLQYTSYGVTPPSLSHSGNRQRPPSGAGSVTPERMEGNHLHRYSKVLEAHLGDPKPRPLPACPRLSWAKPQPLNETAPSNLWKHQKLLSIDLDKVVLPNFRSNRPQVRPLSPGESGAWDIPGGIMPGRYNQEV
# T3: BTMD-hSKI-1 (Homo sapiens, UniProt Q14703)
# T3 sequence (Q14703 187-997 limits assumed): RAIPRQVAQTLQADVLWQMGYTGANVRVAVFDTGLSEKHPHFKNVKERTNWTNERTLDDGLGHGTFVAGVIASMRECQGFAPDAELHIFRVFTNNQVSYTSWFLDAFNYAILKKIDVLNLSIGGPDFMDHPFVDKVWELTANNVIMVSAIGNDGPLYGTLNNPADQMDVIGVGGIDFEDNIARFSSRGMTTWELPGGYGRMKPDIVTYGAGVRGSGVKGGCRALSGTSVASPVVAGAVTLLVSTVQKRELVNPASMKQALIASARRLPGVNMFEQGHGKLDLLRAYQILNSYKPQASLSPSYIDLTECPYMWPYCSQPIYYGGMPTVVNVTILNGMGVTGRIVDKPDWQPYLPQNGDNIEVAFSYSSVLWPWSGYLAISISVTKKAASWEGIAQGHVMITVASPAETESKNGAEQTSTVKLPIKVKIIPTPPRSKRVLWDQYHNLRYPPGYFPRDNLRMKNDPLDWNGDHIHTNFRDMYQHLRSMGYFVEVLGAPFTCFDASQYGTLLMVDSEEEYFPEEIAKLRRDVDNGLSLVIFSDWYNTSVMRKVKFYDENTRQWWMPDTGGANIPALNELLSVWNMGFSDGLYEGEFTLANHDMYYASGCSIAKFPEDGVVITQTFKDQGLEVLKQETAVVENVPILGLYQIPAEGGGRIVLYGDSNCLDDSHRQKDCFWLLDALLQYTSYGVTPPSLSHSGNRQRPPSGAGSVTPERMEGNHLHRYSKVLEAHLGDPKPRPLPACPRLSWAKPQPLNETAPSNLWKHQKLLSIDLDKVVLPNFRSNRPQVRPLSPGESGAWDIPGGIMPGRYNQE
# Legend:
# [1] = biological target: T1, SKI-1; experiment: Example 6: synthetic peptides examined as possible substrates of recombinant SKI-1; type: biochemical; set-up: made in house
# Excerpt: A large number of synthetic peptides based on potential cleavage sites in the hSKI-1 prodomain, proBDNF and the loop region of SREBP-2 were synthesized.
# These peptides were examined as possible substrates of SKI-1.
# [2] = biological target: T2, SKI-1; type: biochemical
# [3] = biological target: T1, SKI-1; conditions: previously established (ref. 10); cited from earlier work
# [4] = substrate: CC(C)C[C@H](NC(=O)[C@H](C)NC(=O)[C@H](CCCNC(=N)N)NC(=O)[C@H](CC(C)C)NC(=O)[C@H](CC(C)C)NC(=O)[C@H](CCCNC(=N)N)NC(=O)[C@H](CCCNC(=N)N)NC(=O)[C@@H](N)CO)C(=O)N[C@@H](CCC(=O)O)C(N)=O; experiment: purified protein, by the assay type; conditions: other: BTMD-SKI-1 medium, times giving 5–30% substrate hydrolysis; averages of duplicate assays; pH 6.5; 37.0 °C
# [5] = substrate: CC(C)C[C@H](NC(=O)[C@H](C)NC(=O)[C@H](CCCNC(=N)N)NC(=O)[C@H](CC(C)C)NC(=O)[C@H](CC(C)C)NC(=O)[C@H](CCCNC(=N)N)NC(=O)[C@H](CCCNC(=N)N)NC(=O)[C@H](CO)NC(=O)[C@H](CO)NC(=O)[C@H](Cc1c[nH]cn1)NC(=O)[C@H](CCCNC(=N)N)NC(=O)CNC(=O)[C@@H](NC(=O)[C@H](C)NC(=O)[C@H](Cc1c[nH]cn1)NC(=O)[C@@H](N)Cc1c[nH]c2ccccc12)[C@@H](C)O)C(=O)N[C@@H](CCC(=O)O)C(N)=O; experiment: purified protein, by the assay type; conditions: other: BTMD-SKI-1 medium, times giving 5–30% substrate hydrolysis; averages of duplicate assays; pH 6.5; 37.0 °C
# [6] = substrate: CC(C)C[C@H](NC(=O)[C@@H](NC(=O)[C@H](CO)NC(=O)[C@H](CCCNC(=N)N)NC(=O)CNC(=O)[C@H](CO)NC(=O)CNC(=O)[C@H](CO)NC(=O)[C@H](Cc1c[nH]cn1)NC(=O)[C@@H]1CCCN1C(=O)[C@H](Cc1c[nH]cn1)NC(=O)[C@H](CCC(N)=O)NC(=O)[C@H](CC(=O)O)NC(=O)[C@H](CO)NC(=O)[C@H](CC(=O)O)NC(=O)[C@H](Cc1c[nH]cn1)NC(=O)[C@H](C)NC(=O)CNC(=O)CN)C(C)C)C(=O)N[C@@H](CO)C(=O)N[C@@H](Cc1ccccc1)C(=O)N[C@@H](CCC(=O)O)C(=O)N[C@@H](CO)C(=O)NCC(=O)N[C@@H](CO)C(=O)NCC(=O)NCC(=O)O; experiment: purified protein, by the assay type; conditions: other: BTMD-SKI-1 medium, times giving 5–30% substrate hydrolysis; averages of duplicate assays; pH 6.5; 37.0 °C
# [7] = biological target: T3, BTMD-hSKI-1; type: biochemical
molecule,measurement,setting,value
PQRKVFRSLKYAESD [IX],cleavage by the recombinant SKI-1,[1],efficiently cleaved
"c1cnc2c(c1)ccc1cccnc12 [O-Phenanthroline, o-phenanthroline]",inhibition of the processing of proBDNF by SKI-1,[2]; at 1 mM,25%
same,inhibition of the processing of proBDNF by SKI-1,"[2]; overnight 37° C., pH 6.0, PMSF 0.5 mM + pAPMSF 50 μM, o-phenanthroline 5 mM, EDTA 10 mM",effectively inhibit
Ser-Ser-Arg-Arg-Leu-Leu↓Arg-Ala-Ile-Glu [(iv)],cleavage by the recombinant SKI-1,[1],efficiently cleaved
Ser-Gly-Ser-Gly-Arg-Ser-Val-Leu↓Ser-Phe-Glu-Ser [(x)],cleavage by the recombinant SKI-1,[1],efficiently cleaved
RSVL-MCA,cleavage of fluorogenic MCA peptides lacking P′ residues,[3],does not cleave
RGLT-MCA,cleavage of fluorogenic MCA peptides lacking P′ residues,[3],does not cleave
RGLTT-MCA,cleavage of fluorogenic MCA peptides lacking P′ residues,[3],does not cleave
BTMD-hSKI-1 (Homo sapiens) (protein) RAIPRQVAQTLQADVLWQMGYTGANVRVAVFDTGLSEKHPHFKNVKERTNWTNERTLDDGLGHGTFVAGVIASMRECQGFAPDAELHIFRVFTNNQVSYTSWFLDAFNYAILKKIDVLNLSIGGPDFMDHPFVDKVWELTANNVIMVSAIGNDGPLYGTLNNPADQMDVIGVGGIDFEDNIARFSSRGMTTWELPGGYGRMKPDIVTYGAGVRGSGVKGGCRALSGTSVASPVVAGAVTLLVSTVQKRELVNPASMKQALIASARRLPGVNMFEQGHGKLDLLRAYQILNSYKPQASLSPSYIDLTECPYMWPYCSQPIYYGGMPTVVNVTILNGMGVTGRIVDKPDWQPYLPQNGDNIEVAFSYSSVLWPWSGYLAISISVTKKAASWEGIAQGHVMITVASPAETESKNGAEQTSTVKLPIKVKIIPTPPRSKRVLWDQYHNLRYPPGYFPRDNLRMKNDPLDWNGDHIHTNFRDMYQHLRSMGYFVEVLGAPFTCFDASQYGTLLMVDSEEEYFPEEIAKLRRDVDNGLSLVIFSDWYNTSVMRKVKFYDENTRQWWMPDTGGANIPALNELLSVWNMGFSDGLYEGEFTLANHDMYYASGCSIAKFPEDGVVITQTFKDQGLEVLKQETAVVENVPILGLYQIPAEGGGRIVLYGDSNCLDDSHRQKDCFWLLDALLQYTSYGVTPPSLSHSGNRQRPPSGAGSVTPERMEGNHLHRYSKVLEAHLGDPKPRPLPACPRLSWAKPQPLNETAPSNLWKHQKLLSIDLDKVVLPNFRSNRPQVRPLSPGESGAWDIPGGIMPGRYNQE,Km,[4],109 nM*1000
same,Vmax,[4],1.83e-05 µmol/min
same,Km,[5],17 nM*1000
same,Vmax,[5],6.67e-06 µmol/min
same,Km,[6],124 nM*1000
same,Vmax,[6],8.33e-06 µmol/min
"˜14 kDa peptide: ˜14 kDa N-terminal fragment of the SKI-1 prosegment, major secreted form (protein) GKKHLGDRLEKKSFEKAPCPGCSHLTLKVEFSSTVVEYEYIVAFNGYFTAKARNSFISSALKSSEVDNWRIIPRNNPSSDYPSDFEVIQIKEKQKAGLLTLEDHPNIKRVTPQRKVFRSL",inhibitory activity of the RP-HPLC-fractionated native prosegment,[7],not inhibitory
